Laboratory results taken from US6426067B1, “Angiogenic inhibitory compounds” (Biomolecular Research Institute, Ltd., priority 1996, dated 2002).

Test system: Chorioallantioic Membrane (CAM)
Format: in vivo
Conditions: 50 μg/cam; BRI2995: surviving eggs
Protocol: The in vivo CAM angiogenesis model, initially described by Folkman (1985) and modified by Maragoudakis et al (1988) was used. Briefly, fresh fertilized eggs were incubated for 4 days at 37° C. when a window was opened on the egg shell exposing the CAM. The window was covered with cellophane tape and the eggs were returned to the incubator until day 9 when the test compounds were applied. The test compounds were placed on sterile plastic discs (10 mm) and were allowed to dry under sterile conditions. Control discs (containing PBS) were placed on the CAM 1 cm away from the discs containing the test material. A sterile solution of cortisone acetate (100 ug/disc, Sigma) was incorporated in all discs in order to prevent an inflammatory response. The loaded and dried discs were inverted and placed on the CAM, the windows were covered and the eggs incubated until day 11 when angiogenesis was assessed.
For morphological evaluation, eggs were treated as above. At day 11 the eggs were flooded with 10% buffered formalin (Janssen Chimica, Geel, Belguim), the plastic discs were removed and the eggs were kept at room temperature for at least 4 hours. At large area around the disc was cut off and placed on a glass slide, and the vascular density index (expressed as number of blood vessels) was measured by the method of Harris-Hooker et al (1983).

CO[C@@H]1[C@H](OC(=O)NC(=O)CCl)CC[C@]2(CO2)[C@H]1[C@@]1(C)O[C@@H]1CC=C(C)C [TNP-470] was tested, and the “inhibition (reduction) of vascular density” value was 21%±16.
